Measurements as given in patent US20220089589A1, “SMALL MOLECULE DEGRADERS OF FKBP12 VIA RECRUITMENT OF VON HIPPEL-LINDAU E3 UBIQUITIN LIGASE (VHL) E3 UBIQUITIN LIGASE, AND USES IN dTAG SYSTEMS” (DANA-FARBER CANCER INSTITUTE, INC., priority 2019, published 2022).
“Also recorded” adds a separate entry of the source.

Experiments:
Type in all cases: cell-based
CDK9 = target: T1, CDK9 (Homo sapiens, UniProt P50750); assay: Immunoblotting of PATU-8902 LACZ-FKBP12^F36V clone, compound 1 and/or THAL-SNS-032 (Example 7), CDK9; details: indicated doses of THAL-SNS-032, 24 hrs, single agent
T1 construct: endogenous in cells; host or cells: PATU-8902 LACZ-FKBP12^F36V clone
Protocol: (§1) PATU-8902 LACZ-FKBP12^F36V clone was plated in 6-well format, allowed to adhere overnight, and treated with DMSO and indicated doses of THAL-SNS-032 and/or 500 nM compound 1 for 24 hrs. Following treatment, cells were lysed in RIPA buffer on ice for 60 minutes. Lysates were clarified by centrifugation at 20,000×g for 10 minutes at 4° C. Immunoblotting was performed to determine changes in protein levels with an Odyssey CLx Imager. The indicated antibodies were employed including HA to monitor LACZ-FKBP12^F36V degradation, CDK9 to monitor CDK9 degradation and α-TUBULIN as a loading control.

LACZ-FKBP12^F36V [1] = assay: Immunoblotting of PATU-8902 LACZ-FKBP12^F36V clone (Example 6); details: 50 or 500 nM, 4 hrs
Protocol: as §1, with “50 nM” for “DMSO”, “and” for “and indicated doses of THAL-SNS-032 and/or”, “dTAG molecules” for “compound 1”, “4” for “24”, “HA (hemagglutinin)” for “HA”, “LACZ-FKBP12^F36V” for “LACZ-FKBP12^F36V degradation, CDK9 to monitor CDK9”

LACZ-FKBP12^F36V [2] = assay: Immunoblotting of PATU-8902 LACZ-FKBP12^F36V clone, compound 1 and/or THAL-SNS-032 (Example 7), HA; details: 500 nM compound 1, 24 hrs, single agent
Protocol: as §1

FKBP12^F36V-KRAS^G12V [3] = assay: Immunoblotting of PATU-8902 FKBP12^F36V-KRAS^G12V; KRAS^−/− clone (Example 8), HA; details: 50 or 500 nM, 4 hrs
Protocol: (§2) PATU-8902 FKBP12^F36V-KRAS^G12V; KRAS^−/− clone was plated in 6-well format, allowed to adhere overnight, and treated with 50 nM and 500 nM dTAG molecules for 4 hrs. Following treatment, cells were lysed in RIPA buffer on ice for 60 minutes. Lysates were clarified by centrifugation at 20,000×g for 10 minutes at 4° C. Immunoblotting was performed to determine changes in protein levels with an Odyssey CLx Imager. The indicated antibodies were employed including HA to monitor FKBP12^F36V-KRAS^G12V degradation, total and phosphorylated ERK to evaluate changes in ERK signaling, total and phosphorylated AKT to evaluate changes in AKT signaling and α-TUBULIN as a loading control.

pERK = assay: Immunoblotting of PATU-8902 FKBP12^F36V-KRAS^G12V; KRAS^−/− clone (Example 8), ERK signaling; details: 50 or 500 nM, 4 hrs
Protocol: as §2

pAKT = assay: Immunoblotting of PATU-8902 FKBP12^F36V-KRAS^G12V; KRAS^−/− clone (Example 8), AKT signaling; details: 50 or 500 nM, 4 hrs
Protocol: as §2

FKBP12^F36V-KRAS^G12V [4] = assay: Immunoblotting of PATU-8902 FKBP12^F36V-KRAS^G12V; KRAS^−/− clone with carfilzomib or MLN4924 pre-treatment (Example 9); details: 500 nM, 4 hrs
Protocol: PATU-8902 FKBP12^F36V-KRAS^G12V; KRAS^−/− clone was plated in 6-well format, allowed to adhere overnight, and treated with DMSO, Carflizomib (CARF) or MLN4924 (MLN) prior to treatment with DMSO or compound 1 for 4 hrs. Following treatment, cells were lysed in RIPA buffer on ice for 60 minutes. Lysates were clarified by centrifugation at 20,000×g for 10 minutes at 4° C. Immunoblotting was performed to determine changes in protein levels with an Odyssey CLx Imager. The indicated antibodies were employed including HA to monitor FKBP12^F36V-KRAS^G12V degradation and α-TUBULIN as a loading control.

FKBP12^F36V-KRAS^G12V [5] = assay: Immunoblotting of 293T^WT FKBP12^F36V-KRAS^G12V cells; details: 50 or 500 nM, 24 hrs
Protocol: (§3) 293T^WT or 293T^VHL−/− FKBP12^F36V-KRAS^G12V cells were plated in 6-well format, allowed to adhere overnight, and treated with 50 nM and 500 nM dTAG molecules for 24 hrs. Following treatment, cells were lysed in RIPA buffer on ice for 60 minutes. Lysates were clarified by centrifugation at 20,000×g for 10 minutes at 4° C. Immunoblotting was performed to determine changes in protein levels with an Odyssey CLx Imager. The indicated antibodies were employed including HA to monitor FKBP12^F36V-KRAS^G12V degradation and α-TUBULIN as a loading control.

FKBP12^F36V-KRAS^G12V [6] = assay: Immunoblotting of 293T^VHL−/− FKBP12^F36V-KRAS^G12V cells; details: 50 or 500 nM, 24 hrs
Protocol: as §3

[7] = system: PATU-8902 FKBP12^F36V-KRAS^G12V; KRAS^−/− clone; assay: Anti-proliferation via CellTiter-Glo, PATU-8902 FKBP12^F36V-KRAS^G12V; KRAS^−/− clone (Example 11); details: 0.00063-20 μM, 72 hrs
Protocol: (§4) PATU-8902 LACZ-FKBP12^F36V or FKBP12^F36V-KRAS^G12V; KRAS^−/− clones were plated in 384-well format, allowed to adhere overnight, and treated with various dTAG molecules from compound stock plates using a JANUS® Workstation pin tool for 72 hrs. To measure cell viability, CellTilter-Glo® was added to wells for 15 minutes at r.t. and luminescence was measured on an EnVision™ 2104 Multilabel Plate Reader.

[8] = system: PATU-8902 LACZ-FKBP12^F36V clone; assay: Anti-proliferation via CellTiter-Glo, PATU-8902 LACZ-FKBP12^F36V control clone (Example 11); details: 0.00063-20 μM, 72 hrs
Protocol: as §4

[9] = system: PATU-8902 FKBP12^F36V-KRAS^G12V; KRAS^−/− clone; assay: Anti-proliferation via CellTiter-Glo, PATU-8902 FKBP12^F36V-KRAS^G12V; KRAS^−/− clone (Example 12); details: 0.000063-2 μM, 72 hrs
Protocol: as §4, with “Cell Tilter-Glo®” for “CellTilter-Glo®”

[10] = system: PATU-8902 LACZ-FKBP12^F36V clone; assay: Anti-proliferation via CellTiter-Glo, PATU-8902 LACZ-FKBP12^F36V control clone (Example 12); details: 0.000063-2 μM, 72 hrs
Protocol: as §4, with “Cell Tilter-Glo®” for “CellTilter-Glo®”

[11] = system: PATU-8902 FKBP12^F36V-KRAS^G12V; KRAS^−/− clone; assay: Cell transformation by growth in ultra-low attachment conditions, PATU-8902 FKBP12^F36V-KRAS^G12V; KRAS^−/− clone (Example 13); details: 0.000063-2 μM, 120 hrs
Protocol: as §4, with “format in ultra-low attachment conditions,” for “format,”, “form 3D-spheroids” for “adhere”, “120” for “72”, “transformation, Cell Tilter-Glo®” for “viability, CellTilter-Glo®”, “room temperature” for “r.t.”

[12] = system: PATU-8902 LACZ-FKBP12^F36V clone; assay: Cell transformation by growth in ultra-low attachment conditions, PATU-8902 LACZ-FKBP12^F36V control clone (Example 13); details: 0.000063-2 μM, 120 hrs
Protocol: as §4, with “format in ultra-low attachment conditions,” for “format,”, “form 3D-spheroids” for “adhere”, “120” for “72”, “transformation, Cell Tilter-Glo®” for “viability, CellTilter-Glo®”, “room temperature” for “r.t.”

FKBP12^F36V-GFP = assay: Immunoblotting of EWS502 FKBP12^F36V-GFP cells; details: dTAG-13 10-5000 nM, compound 1 50-5000 nM, 24 hrs
Protocol: (§5) EWS502 FKBP12^F36V-GFP and FKBP12^F36V-EWS/FLI; EWS/FLP^−/− cells were plated in 6-well format, allowed to adhere overnight, and treated with (10-5000 nM) dTAG-13 or (50-5000 nM) compound 1 for 24 hrs. Following treatment, cells were lysed in Cell Lysis Buffer (Cell Signaling Technology®) on ice for 60 minutes. Lysates were clarified by centrifugation at 20,000×g for 10 minutes at 4° C. Immunoblotting was performed to determine changes in protein levels upon incubation with the appropriate horseradish peroxidase-conjugated secondary antibodies. The indicated antibodies were employed including HA to monitor FKBP12^F36V-GFP or FKBP12^F36V-EWS/FLI degradation and Vinculin as a loading control.

FKBP12^F36V-EWS/FLI = assay: Immunoblotting of EWS502 FKBP12^F36V-EWS/FLI; EWS/FLI^−/− cells; details: dTAG-13 10-5000 nM, compound 1 50-5000 nM, 24 hrs, EWS502 cells
Protocol: as §5

Row | degradation of CDK9 (immunoblot) (CDK9) | SMILES | degradation of LACZ-FKBP12^F36V (immunoblot) (LACZ-FKBP12^F36V [1]) | degradation of LACZ-FKBP12^F36V (immunoblot) (LACZ-FKBP12^F36V [2]) | degradation of FKBP12^F36V-KRAS^G12V (immunoblot) (FKBP12^F36V-KRAS^G12V [3]) | pERK levels (immunoblot) (pERK) | pAKT levels (immunoblot) (pAKT) | degradation of FKBP12^F36V-KRAS^G12V (immunoblot) (FKBP12^F36V-KRAS^G12V [4]; DMSO pre-treatment) | degradation of FKBP12^F36V-KRAS^G12V after pre-treatment with Nedd8 activating enzyme inhibitor MLN4924 (MLN) (FKBP12^F36V-KRAS^G12V [4]; MLN4924 pre-treatment) | degradation of FKBP12^F36V-KRAS^G12V after pre-treatment with proteasome-inhibitor carfilzomib (CARF) (FKBP12^F36V-KRAS^G12V [4]; carfilzomib pre-treatment) | degradation of FKBP12^F36V-KRAS^G12V in 293T^WT cells (immunoblot) (FKBP12^F36V-KRAS^G12V [5]) | degradation of FKBP12^F36V-KRAS^G12V in 293T^VHL−/− cells (immunoblot) (FKBP12^F36V-KRAS^G12V [6]) | anti-proliferative effects / loss of cell viability (% DMSO control) [7] | anti-proliferative effects on LACZ-FKBP12^F36V control clone [8] | anti-proliferative effects / loss of cell viability (% DMSO control) [9] | anti-proliferative effects on LACZ-FKBP12^F36V control clone [10] | loss of cell transformation (3D-spheroids, % DMSO control) [11] | effects on cell transformation of LACZ-FKBP12^F36V control clone [12] | degradation of FKBP12^F36V-GFP (immunoblot) (FKBP12^F36V-GFP) | degradation of FKBP12^F36V-EWS/FLI (immunoblot) (FKBP12^F36V-EWS/FLI)
1 | potent degradation | CC(C)(C)c1cnc(CSc2cnc(NC(=O)C3CCN(CC(=O)NCCOCCOCCOCCNc4cccc5c4C(=O)N(C4CCC(=O)NC4=O)C5=O)CC3)s2)o1 (stereo not shown) [THAL-SNS-032] |  |  |  |  |  |  |  |  |  |  |  |  |  |  |  |  |  | 
2 |  | CC[C@H](C(=O)N1CCCC[C@H]1C(=O)O[C@H](CCc1ccc(OC)c(OC)c1)c1ccccc1OCC(=O)NCCCCCCC(=O)N[C@H](C(=O)N1C[C@H](O)C[C@H]1C(=O)N[C@@H](C)c1ccc(-c2scnc2C)cc1)C(C)(C)C)c1cc(OC)c(OC)c(OC)c1 [Compound 1, (R)-3-(3,4-dimethoxyphenyl)-1-(2-(2-((7-(((S)-1-((2S,4R)-4-hydroxy-2-(((S)-1-(4-(4-methylthiazol-5-yl)phenyl)ethyl)carbamoyl)pyrrolidin-1-yl)-3,3-dimethyl-1-oxobutan-2-yl)amino)-7-oxoheptyl)amino)-2-oxoethoxy)phenyl)propyl (S)-1-((S)-2-(3,4,5-trimethoxyphenyl)butanoyl)piperidine-2-carboxylate] | rapid degradation; also recorded: potent degradation | potent degradation | potent degradation | pronounced diminished levels | pronounced diminished levels | potent degradation | rescued | rescued | potent degradation | not and did not degrade | Effective loss of viability; also recorded: potent anti-proliferative effects | limited effects | Effective loss of viability; also recorded: potent anti-proliferative effects | limited effects | Effective loss of viability; also recorded: potent loss of cell transformation | limited effects | Degradation of GFP (control) is observed; also recorded: potent degradation | potent degradation
